Results taken from US20180110754A1, “CENICRIVIROC FOR THE TREATMENT OF FIBROSIS” (Tobira Therapeutics, Inc., priority 2015, published 2018).

Tests used:
[1] = system: MCP-1, sCD14, hs-CRP, IL-6, D-dimer, fibrinogen; test: Study 202: biomarkers of inflammation and immune function; assay type: in vivo, human
Experimental: As an exploratory analysis, levels of inflammation biomarkers MCP-1, sCD14, high sensitivity C-reactive protein [hs-CRP], interleukin-6 [IL-6], D-dimer, and fibrinogen) were measured. Baseline values and changes from baseline at Week 24 and Week 48 of MCP-1, sCD14, hs-CRP, IL-6, D-dimer, and fibrinogen are summarized in Table 25.
The sCD14 samples were originally analyzed in 2 separate batches: Batch 1 included samples leading up to the Week 24 primary analysis and Batch 2 included Week 32 and Week 48 (end of study) samples. A repeat analysis of archived samples all analyzed in one batch was conducted for consistency in analysis across time points. To control for the effects of covariates, a linear mixed-model repeated-measures analysis was conducted on the changes from baseline in sCD14 (analysis dated September 2013).

[2] = Study 202: treatment-emergent laboratory abnormalities (DAIDS grades; CPK, ALT, AST, bilirubin); assay type: in vivo; details: All CVC (N = 115), EFV (N = 28)
From the text: The number of subjects with graded treatment-emergent laboratory abnormalities in selected liver parameters of interest is shown in Table 34. No Grade 4 ALT or AST elevations were observed. Except for one Grade 3 AST elevation, all ALT and AST elevations were Grade 1 or Grade 2. […] All abnormalities in bilirubin were Grade 1 or Grade 2. […]

Structure (SMILES): CCCCOCCOc1ccc(-c2ccc3c(c2)/C=C(/C(=O)Nc2ccc([S@@+]([O-])Cc4cncn4CCC)cc2)CCCN3CC(C)C)cc1 [CVC, (S)-8-[4-(2-Butoxyethoxy)phenyl]-1-isobutyl-N-(4-{[(1-propyl-1H-imidazol-5-yl)methyl]sulfinyl}phenyl)-1,2,3,4-tetrahydro-1-benzazocine-5-carboxamide]
- D-dimer baseline value, mean ([1]; CVC 100 mg): 187 ng/mL
- D-dimer baseline value, median ([1]; CVC 100 mg): 150 ng/mL
- D-dimer change from baseline at Week 24, mean ([1]; CVC 100 mg): -32 ng/mL
- D-dimer change from baseline at Week 24, median ([1]; CVC 100 mg): -1.0 ng/mL
- D-dimer change from baseline at Week 48, mean ([1]; CVC 100 mg): -41 ng/mL
- D-dimer change from baseline at Week 48, median ([1]; CVC 100 mg): -1.0 ng/mL
- Fibrinogen baseline value, mean ([1]; CVC 100 mg): 236 mg/dL
- Fibrinogen baseline value, median ([1]; CVC 100 mg): 229 mg/dL
- Fibrinogen change from baseline at Week 24, mean ([1]; CVC 100 mg): -3 mg/dL
- Fibrinogen change from baseline at Week 24, median ([1]; CVC 100 mg): -14 mg/dL
- Fibrinogen change from baseline at Week 48, mean ([1]; CVC 100 mg): 11 mg/dL
- Fibrinogen change from baseline at Week 48, median ([1]; CVC 100 mg): 15 mg/dL
- IL-6 baseline value, mean ([1]; CVC 100 mg): 2.51 pg/mL
- IL-6 baseline value, median ([1]; CVC 100 mg): 1.90 pg/mL
- IL-6 change from baseline at Week 24, mean ([1]; CVC 100 mg): 0.42 pg/mL
- IL-6 change from baseline at Week 24, median ([1]; CVC 100 mg): 0.00 pg/mL
- IL-6 change from baseline at Week 48, mean ([1]; CVC 100 mg): 0.29 pg/mL
- IL-6 change from baseline at Week 48, median ([1]; CVC 100 mg): 0.00 pg/mL
- MCP-1 baseline value, mean ([1]; CVC 100 mg): 128 pg/mL
- MCP-1 baseline value, median ([1]; CVC 100 mg): 110 pg/mL
- MCP-1 change from baseline at Week 24, mean ([1]; CVC 100 mg): 493 pg/mL
- MCP-1 change from baseline at Week 24, median ([1]; CVC 100 mg): 429 pg/mL
- MCP-1 change from baseline at Week 48, mean ([1]; CVC 100 mg): 636 pg/mL
- MCP-1 change from baseline at Week 48, median ([1]; CVC 100 mg): 523 pg/mL
- hs-CRP baseline value, mean ([1]; CVC 100 mg): 0.39 mg/dL
- hs-CRP baseline value, median ([1]; CVC 100 mg): 0.15 mg/dL
- hs-CRP change from baseline at Week 24, mean ([1]; CVC 100 mg): -0.16 mg/dL
- hs-CRP change from baseline at Week 24, median ([1]; CVC 100 mg): -0.03 mg/dL
- hs-CRP change from baseline at Week 48, mean ([1]; CVC 100 mg): -0.08 mg/dL
- hs-CRP change from baseline at Week 48, median ([1]; CVC 100 mg): -0.01 mg/dL
- sCD14 (original values) baseline value, mean ([1]; CVC 100 mg): 1.8e+06 pg/mL
- sCD14 (original values) baseline value, median ([1]; CVC 100 mg): 1.73e+06 pg/mL
- sCD14 (original values) change from baseline at Week 12, mean ([1]; CVC 100 mg): -140000 pg/mL
- sCD14 (original values) change from baseline at Week 12, median ([1]; CVC 100 mg): -160000 pg/mL
- sCD14 (original values) change from baseline at Week 24, mean ([1]; CVC 100 mg): -190000 pg/mL
- sCD14 (original values) change from baseline at Week 24, median ([1]; CVC 100 mg): -180000 pg/mL
- sCD14 (original values) change from baseline at Week 32, mean ([1]; CVC 100 mg): 110000 pg/mL
- sCD14 (original values) change from baseline at Week 32, median ([1]; CVC 100 mg): 120000 pg/mL
- sCD14 (original values) change from baseline at Week 48, mean ([1]; CVC 100 mg): 100000 pg/mL
- sCD14 (original values) change from baseline at Week 48, median ([1]; CVC 100 mg): 100000 pg/mL
- D-dimer baseline value, mean ([1]; CVC 200 mg): 184 ng/mL
- D-dimer baseline value, median ([1]; CVC 200 mg): 125 ng/mL
- D-dimer change from baseline at Week 24, mean ([1]; CVC 200 mg): -64 ng/mL
- D-dimer change from baseline at Week 24, median ([1]; CVC 200 mg): -50 ng/mL
- D-dimer change from baseline at Week 48, mean ([1]; CVC 200 mg): -70 ng/mL
- D-dimer change from baseline at Week 48, median ([1]; CVC 200 mg): -50 ng/mL
- Fibrinogen baseline value, mean ([1]; CVC 200 mg): 248 mg/dL
- Fibrinogen baseline value, median ([1]; CVC 200 mg): 260 mg/dL
- Fibrinogen change from baseline at Week 24, mean ([1]; CVC 200 mg): -7 mg/dL
- Fibrinogen change from baseline at Week 24, median ([1]; CVC 200 mg): -8 mg/dL
- Fibrinogen change from baseline at Week 48, mean ([1]; CVC 200 mg): -10 mg/dL
- Fibrinogen change from baseline at Week 48, median ([1]; CVC 200 mg): -13 mg/dL
- IL-6 baseline value, mean ([1]; CVC 200 mg): 3.34 pg/mL
- IL-6 baseline value, median ([1]; CVC 200 mg): 1.90 pg/mL
- IL-6 change from baseline at Week 24, mean ([1]; CVC 200 mg): 0.81 pg/mL
- IL-6 change from baseline at Week 24, median ([1]; CVC 200 mg): 0.00 pg/mL
- IL-6 change from baseline at Week 48, mean ([1]; CVC 200 mg): -0.04 pg/mL
- IL-6 change from baseline at Week 48, median ([1]; CVC 200 mg): 0.00 pg/mL
- MCP-1 baseline value, mean ([1]; CVC 200 mg): 153 pg/mL
- MCP-1 baseline value, median ([1]; CVC 200 mg): 137 pg/mL
- MCP-1 change from baseline at Week 24, mean ([1]; CVC 200 mg): 753 pg/mL
- MCP-1 change from baseline at Week 24, median ([1]; CVC 200 mg): 695 pg/mL
- MCP-1 change from baseline at Week 48, mean ([1]; CVC 200 mg): 900 pg/mL
- MCP-1 change from baseline at Week 48, median ([1]; CVC 200 mg): 756 pg/mL
- hs-CRP baseline value, mean ([1]; CVC 200 mg): 0.46 mg/dL
- hs-CRP baseline value, median ([1]; CVC 200 mg): 0.15 mg/dL
- hs-CRP change from baseline at Week 24, mean ([1]; CVC 200 mg): -0.04 mg/dL
- hs-CRP change from baseline at Week 24, median ([1]; CVC 200 mg): -0.04 mg/dL
- hs-CRP change from baseline at Week 48, mean ([1]; CVC 200 mg): -0.18 mg/dL
- hs-CRP change from baseline at Week 48, median ([1]; CVC 200 mg): -0.04 mg/dL
- sCD14 (original values) baseline value, mean ([1]; CVC 200 mg): 1.88e+06 pg/mL
- sCD14 (original values) baseline value, median ([1]; CVC 200 mg): 1.86e+06 pg/mL
- sCD14 (original values) change from baseline at Week 12, mean ([1]; CVC 200 mg): -230000 pg/mL
- sCD14 (original values) change from baseline at Week 12, median ([1]; CVC 200 mg): -210000 pg/mL
- sCD14 (original values) change from baseline at Week 24, mean ([1]; CVC 200 mg): -230000 pg/mL
- sCD14 (original values) change from baseline at Week 24, median ([1]; CVC 200 mg): -190000 pg/mL
- sCD14 (original values) change from baseline at Week 32, mean ([1]; CVC 200 mg): -20000 pg/mL
- sCD14 (original values) change from baseline at Week 32, median ([1]; CVC 200 mg): -20000 pg/mL
- sCD14 (original values) change from baseline at Week 48, mean ([1]; CVC 200 mg): -40000 pg/mL
- sCD14 (original values) change from baseline at Week 48, median ([1]; CVC 200 mg): -40000 pg/mL
- Any graded (Grade 1-4) treatment-emergent laboratory abnormality, n subjects [2]: 106
- Laboratory abnormality, worst Grade 1, n subjects [2]: 37
- Laboratory abnormality, worst Grade 2, n subjects [2]: 50
- Laboratory abnormality, worst Grade 3 (Any Grade 3 abnormality), n subjects [2]: 13
- Laboratory abnormality, worst Grade 4 (Any Grade 4 abnormality), n subjects [2]: 6
- ALT, worst Grade 1, n subjects ([2]; through Week 48): 10
- ALT, worst Grade 2, n subjects ([2]; through Week 48): 5
- ALT, worst Grade 3, n subjects ([2]; through Week 48): 0
- ALT, worst Grade 4, n subjects ([2]; through Week 48): 0
- AST, worst Grade 1, n subjects ([2]; through Week 48): 14
- AST, worst Grade 2, n subjects ([2]; through Week 48): 6
- AST, worst Grade 3, n subjects ([2]; through Week 48): 1
- AST, worst Grade 4, n subjects ([2]; through Week 48): 0
- Alanine aminotransferase (ALT) abnormality, any grade, n subjects ([2]; through Week 48): 15
- Any Grade 3 or Grade 4 laboratory abnormality, n subjects ([2]; through Week 48): 19
- Aspartate aminotransferase (AST) abnormality, any grade, n subjects ([2]; through Week 48): 21
- Aspartate aminotransferase (AST) increased (Grade 3 or 4), n subjects ([2]; through Week 48): 1
- Bilirubin abnormality, any grade, n subjects ([2]; through Week 48): 7
